The values that follow come from EP2508526A1, “Spiroalkene carboxamide derivatives and their use as chemokine receptor modulators” (Ares Trading SA, priority 2011, dated 2012).

The test has as its target T1, hCCR2b (Homo sapiens, UniProt P41597).
T1 sequence (P41597 1-360 isoform P41597-2): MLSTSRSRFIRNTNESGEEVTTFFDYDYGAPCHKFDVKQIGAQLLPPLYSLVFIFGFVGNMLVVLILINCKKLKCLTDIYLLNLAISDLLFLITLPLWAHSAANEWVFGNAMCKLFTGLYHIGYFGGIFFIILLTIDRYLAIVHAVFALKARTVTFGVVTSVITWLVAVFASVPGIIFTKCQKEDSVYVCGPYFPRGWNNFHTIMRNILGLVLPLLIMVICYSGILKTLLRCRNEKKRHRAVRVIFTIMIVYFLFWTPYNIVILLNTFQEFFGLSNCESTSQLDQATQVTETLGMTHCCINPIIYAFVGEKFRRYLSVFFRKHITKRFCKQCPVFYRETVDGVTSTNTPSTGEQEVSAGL
The test is described as follows: CCR2 binding assay ([125I]MCP-1, SPA, CHO cell membranes). More on the design: expressed in transfected cells; host or cells: CHO cells (membrane preparation). The following applies: membranes from CHO cells expressing hCCR2b, 50 pM [125I]MCP-1; read-out: Binding hCCR2 (Ki). The essentials: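 CHO membranes expressing hCCR2b (1–5 µg/well) with 50 pM [125I]MCP-1 and WGA SPA beads in 50 mM HEPES pH 7.4, 5 mM MgCl2, 1 mM CaCl2, 0.1% BSA, 1% DMSO; 90 min RT with agitation. Bound counts on scintillation counter; nonspecific defined by 1000-fold excess unlabeled compound.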

Molecules are shown by their SMILES. Where a name gives a salt, the structure may show the parent alone. Where only a bound is given, the exact number is not on record here.

Take `CCN1CCC2(CC1)OC(=O)C(C)=C2C(=O)N1C[C@@H]2C[C@H]1CN2c1nccc(C(F)(F)F)n1` [Compound 72, 8-ethyl-3-methyl-4-({(1S,4S)-5-[4-(trifluoromethyl)pyrimidin-2-yl]-2.5-diazabicyclo[2.2.1]hept-2-yl}carbonyl)-1-oxa-8-azaspiro[4.5]dec-3-en-2-one]: the Ki is less than 50 nM.
For the molecule `CCN1CCC2(CC1)OC(=O)C(C)=C2C(=O)Nc1ccc(-n2ccc(C(F)(F)F)n2)cc1` [Compound 75, 8-ethyl-3-methyl-2-oxo-N-{4-[3-(trifluoromethyl)-1H-pyrazol-1-yl]phenyl}-1-oxa-8-azaspiro[4.5]dec-3-ene-4-carboxamide], the inhibitory constant (Ki) fell in the range of 500 to 2000 nM.
As to `CC1=C(C(=O)N2CCc3ccc(C(F)(F)F)cc3C2)C2(CCNCC2)OC1=O` [Compound 76, 3-methyl-4-{[7-(trifluoromethyl)-3,4-dihydroisoquinolin-2(1H)-yl]carbonyl}-1-oxa-8-azaspiro[4.5]dec-3-en-2-one, hydrocloride salt], the Ki is less than 50 nM.
Turning to `CC1=C(C(=O)N2CCc3ccc(C(F)(F)F)cc3C2)C2(CCN(C(C)(C)C)CC2)OC1=O` [Compound 77, 8-tert-butyl-3-methyl-4-{[7-(trifluoromethyl)-3,4-dihydroisoquinolin-2(1H)-yl]carbonyl}-1-oxa-8-azaspiro[4.5]dec-3-en-2-one], the Ki was less than 50 nM.
As for `CC1=C(C(=O)N2CCc3ncc(C(F)(F)F)cc3C2)C2(CCNCC2)OC1=O` [Compound 78, 3-methyl-4-{[3-(trifluoromethyl)-7,8-dihydro-1,6-naphthyridin-6(5H)-yl]carbonyl}-1-oxa-8-azaspiro[4.5]dec-3-en-2-one, hydrocloride salt], the figure is 100 to 500 nM; as for `CCN1CCC2(CC1C)OC(=O)C(C)=C2C(=O)N1CCc2ccc(C(F)(F)F)cc2C1` (stereo not shown) [Compound 79, 8-ethyl-3,7-dimethyl-4-{[7-(trifluoromethyl)-3,4-dihydroisoquinolin-2(1H)-yl]carbonyl}-1-oxa-8-azaspiro[4.5]dec-3-en-2-one], less than 50 nM; as for `CCN1CCC2(CC1)OC(=O)C(C)=C2C(=O)N1CCN(c2cccc(F)c2)CC1` [Compound 80, 8-ethyl-4-{[4-(3-fluorophenyl)piperazin-1-yl]carbonyl}-3-methyl-1-oxa-8-azaspiro[4.5]dec-3-en-2-one], 500 to 2000 nM.
As for `CCN1CCC2(CC1)OC(=O)C(C)=C2C(=O)N1CCN(c2cccc(OC(F)(F)F)c2)CC1` [Compound 81, 8-ethyl-3-methyl-4-({4-[3-(trifluoromethoxy)phenyl]piperazin-1-yl}carbonyl)-1-oxa-8-azaspiro[4.5]dec-3-en-2-one], the figure is less than 50 nM.
As for `CCN1CCC2(CC1)OC(=O)C(C)=C2C(=O)N1CCN(c2ccc(Cl)c(C(F)(F)F)c2)CC1` [Compound 82, 4-({4-[4-chloro-3-(trifluoromethyl)phenyl]piperazin-1-yl}carbonyl)-8-ethyl-3-methyl-1-oxa-8-azaspiro[4.5]dec-3-en-2-one], the figure is less than 50 nM; as for `CCN1CCC2(CC1)OC(=O)C(C)=C2C(=O)N1CCC(Nc2ccc(C(F)(F)F)cc2)C1` (stereo not shown) [Compound 83, 8-ethyl-3-methyl-4-[(3-{[4-(trifluoromethyl)phenyl]amino}pyrrolidin-1-yl)carbonyl]-1-oxa-8-azaspiro[4.5]dec-3-en-2-one], less than 50 nM.
Consider `CCN1CCC2(CC1)OC(=O)C(C)=C2C(=O)N1CCN(c2cccc(C(F)(F)F)c2)CC1C` (stereo not shown) [Compound 84, 8-ethyl-3-methyl-4-({2-methyl-4-[3-(trifluoromethyl)phenyl]piperazin-1-yl}carbonyl)-1-oxa-8-azaspiro[4.5]dec-3-en-2-one], for which the Ki is less than 50 nM.
Then `CCN1CCC2(CC1)OC(=O)C(C)=C2C(=O)N1CCc2ncc(C(F)(F)F)cc2C1` [Compound 85, 8-ethyl-3-methyl-4-{[3-(trifluoromethyl)-7,8-dihydro-1,6-naphthyridin-6(5H)-yl]carbonyl}-1-oxa-8-azaspiro[4.5]dec-3-en-2-one], with less than 50 nM; and `CCN1CCC2(CC1)OC(=O)C(C)=C2C(=O)N1CCN(c2cc(Cl)cc(C(F)(F)F)c2)CC1` [Compound 86, 4-({4-[3-chloro-5-(trifluoromethyl)phenyl]piperazin-1-yl}carbonyl)-8-ethyl-3-methyl-1-oxa-8-azaspiro[4.5]dec-3-en-2-one], with less than 50 nM.
As for `CCN1CCC2(CC1)OC(=O)C(C)=C2C(=O)N1CCN(c2cc(OC)cc(C(F)(F)F)c2)CC1` [Compound 87, 8-ethyl-4-({4-[3-methoxy-5-(trifluoromethyl)phenyl]piperazin-1-yl}carbonyl)-3-methyl-1-oxa-8-azaspiro[4.5]dec-3-en-2-one], the figure is less than 50 nM; as for `CCN1CCC2(CC1)OC(=O)C(C)=C2C(=O)N1CCN(c2cc(C(F)(F)F)cc(C(F)(F)F)c2)CC1` [Compound 88, 4-({4-[3,5-bis(trifluoromethyl)phenyl]piperazin-1-yl}carbonyl)-8-ethyl-3-methyl-1-oxa-8-azaspiro[4.5]dec-3-en-2-one], less than 50 nM; as for `CCN1CCC2(CC1)OC(=O)C(C)=C2C(=O)NCc1cccc(C(F)(F)F)c1` [Compound 89, 8-ethyl-3-methyl-2-oxo-N-[3-(trifluoromethyl)benzyl]-1-oxa-8-azaspiror[4.5]dec-3-ene-4-carboxamide], 50 to 100 nM.
Then `CCN1CCC2(CC1)OC(=O)C(C)=C2C(=O)N1CCCN(c2cccc(C(F)(F)F)c2)CC1` [Compound 90, 8-ethyl-3-methyl-4-({4-[3-(trifluoromethyl)phenyl]-1,4-diazepan-1-yl}carbonyl)-1-oxa-8-azaspiro[4.5]dec-3-en-2-one], with 50 to 100 nM; and `CCN1CCC2(CC1)OC(=O)C(C)=C2C(=O)N1CCCN(c2ccc(C(F)(F)F)cc2)CC1` [Compound 91, 8-ethyl-3-methyl-4-({4-[4-(trifluoromethyl)phenyl]-1,4-diazepan-1-yl}carbonyl)-1-oxa-8-azaspiro[4.5]dec-3-en-2-one], with 100 to 500 nM.
Regarding `CCN1CCC2(CC1)OC(=O)C(C)=C2C(=O)NCCCc1cccc(C(F)(F)F)c1` [Compound 92, 8-ethyl-3-methyl-2-oxo-N-{3-[3-(trifluoromethyl)phenyl]propyl}-1-oxa-8-azaspiro[4.5]dec-3-ene-4-carboxamide], the Ki was 100 to 500 nM.
Then `CCN1CCC2(CC1)OC(=O)C(C)=C2C(=O)N1CCN(c2ccc(OC(F)(F)F)cc2)CC1` [Compound 93, 8-ethyl-3-methyl-4-({4-[4-(trifluoromethoxy)phenyl]piperazin-1-yl}carbonyl)-1-oxa-8-azaspiro[4.5]1dec-3-en-2-one], with 100 to 500 nM.
On to `CCN1CCC2(CC1)OC(=O)C(C)=C2C(=O)N1CCC(c2cccc(C(F)(F)F)c2)CC1` [Compound 94, 8-ethyl-3-methyl-4-({4-[3-(trifluoromethyl)phenyl]piperidin-1-yl}carbonyl)-1-oxa-8-azaspiro[4.5]dec-3-en-2-one], for which the inhibitory constant (Ki) was 100 to 500 nM.
As for `CCN1CCC2(CC1)OC(=O)C(C)=C2C(=O)N1CCN(c2cc(C(F)(F)F)ccc2OC)CC1` [Compound 95, 8-ethyl-4-({4-[2-methoxy-5-(trifluoromethyl)phenyl]piperazin-1-yl}carbonyl)-3-methyl-1-oxa-8-azaspiro[4.5]dec-3-en-2-one], the figure is 500 to 2000 nM; as for `CCN1CCC2(CC1)OC(=O)C(C)=C2C(=O)N1CCN(c2cc(C(F)(F)F)ccc2C)CC1` [Compound 96, 8-ethyl-3-methyl-4-({4-[2-methyl-5-(trifluoromethyl)phenyl]piperazin-1-yl}carbonyl)-1-oxa-8-azaspiro[4.5]dec-3-en-2-one], 500 to 2000 nM; as for `CCN1CCC2(CC1)OC(=O)C(C)=C2C(=O)Nc1ccc(-c2cccc(C(F)(F)F)c2)cc1` [Compound 98, 8-ethyl-3-methyl-2-oxo-N-[3'-(trifluoromethyl)biphenyl-4-yl]-1-oxa-8-azaspiro[4.5]dec-3-ene-4-carboxamide], 500 to 2000 nM.
Consider `CCN1CCC2(CC1)OC(=O)C(C)=C2C(=O)NCCc1cccc(C(F)(F)F)c1` [Compound 99, 8-ethyl-3-methyl-2-oxo-N-{2-[3-(trifluoromethyl)phenyl]ethyl}-1-oxa-8-azaspiro[4.5]dec-3-ene-4-carboxamide], for which the Ki lay in the range of 500 to 2000 nM.
As for `CCN1CCC2(CC1)OC(=O)C(C)=C2C(=O)NCCc1ccc(C(F)(F)F)cc1` [Compound 100, 8-ethyl-3-methyl-2-oxo-N-{2-[4-(trifluoromethyl)phenyl]ethyl}-1-oxa-8-azaspiro[4.5]dec-3-ene-4-carboxamide], the Ki lay within 500 to 2000 nM.
As for `CC1=C(C(=O)N2CCN(c3cccc(C(F)(F)F)c3)CC2)C2(CCN(C(C)C)CC2)OC1=O` [Compound 101, 8-isopropyl-3-methyl-4-({4-[3-(trifluoromethyl)phenyl]piperazin-1-yl}carbonyl)-1-oxa-8-azaspiro[4.5]dec-3-en-2-one], the figure is less than 50 nM; as for `CC1=C(C(=O)N2CCN(c3cccc(C(F)(F)F)c3)CC2)C2(CCN(CCc3ccccc3)CC2)OC1=O` [Compound 102, 3-methyl-8-(2-phenylethyl)-4-({4-[3-(trifluoromethyl)phenyl]piperazin-1-yl}carbonyl)-1-oxa-8-azaspiro[4.5]dec-3-en-2-one], less than 50 nM.
